Data from patent US6165986A (Taisho Pharmaceutical Co., Ltd., priority 1997, dated 2000).
Converted amounts (≈) assume the structure as drawn.

Key:
Assay type in all cases: cell-based
S. epidermidis IID 866 = assay: In vitro antibacterial activity (MIC), S. epidermidis IID 866; conditions: Staphylococcus epidermidis, IID866, sensitive disc media, Japan Society of Chemotherapy method, read-out: MIC value (Minimum Inhibitory Concentration)
Description: (§1) The in vitro antibacterial activity of the compound obtained in Example 2 as an example of the compound of the present invention against various experimental bacteria was measured using sensitive disc media (produced by Eiken Chemical Co.) according to the MIC measuring method specified by the Japan Society of Chemotherapy. Clarithromycin was used as a comparative drug.

E. faecalis CSJ 1212 = assay: In vitro antibacterial activity (MIC), E. faecalis CSJ 1212; conditions: Enterococcus faecalis, CSJ1212, sensitive disc media, Japan Society of Chemotherapy method, read-out: MIC value (Minimum Inhibitory Concentration)
Description: as §1

S. aureus Smith = assay: In vitro antibacterial activity (MIC), S. aureus Smith; conditions: Staphylococcus aureus, sensitive disc media, Japan Society of Chemotherapy method, read-out: MIC value (Minimum Inhibitory Concentration)
Description: as §1

S. pneumoniae BM 225 = assay: In vitro antibacterial activity (MIC), S. pneumoniae BM 225; conditions: Streptococcus pneumoniae, BM225, sensitive disc media, Japan Society of Chemotherapy method, read-out: MIC value (Minimum Inhibitory Concentration)
Description: as §1

S. aureus 209P-JC = assay: In vitro antibacterial activity (MIC), S. aureus 209P-JC; conditions: Staphylococcus aureus, sensitive disc media, Japan Society of Chemotherapy method, read-out: MIC value (Minimum Inhibitory Concentration)
Description: as §1

S. pneumoniae BM 211 = assay: In vitro antibacterial activity (MIC), S. pneumoniae BM 211; conditions: Streptococcus pneumoniae, BM211, sensitive disc media, Japan Society of Chemotherapy method, read-out: MIC value (Minimum Inhibitory Concentration)
Description: as §1

[1] = system: erythromycin-resistant bacteria; assay: Antibacterial activity against erythromycin-resistant bacteria
Description: as §1

Haemophilus influenzae = assay: Antibacterial activity against Haemophilus influenzae
Description: as §1

[2] = system: erythromycin-sensitive bacteria; assay: Antibacterial activity against erythromycin-sensitive bacteria
Description: as §1

SMILES | MIC (S. epidermidis IID 866) | MIC (E. faecalis CSJ 1212) | MIC (S. aureus Smith) | MIC (S. pneumoniae BM 225) | MIC (S. aureus 209P-JC) | MIC (S. pneumoniae BM 211) | antibacterial activity (in words) [1] | antibacterial activity (in words) (Haemophilus influenzae) | antibacterial activity (in words) [2]
CC[C@H]1OC(=O)[C@H](C)[C@@H](O[C@H]2C[C@@](C)(OC)[C@@H](O)[C@H](C)O2)[C@H](C)[C@@H](O[C@@H]2O[C@H](C)C[C@H](N(C)C)[C@H]2O)[C@](C)(OC)C[C@@H](C)C(=O)[C@H](C)[C@@H](O)[C@]1(C)O [Comparative drug, Clarithromycin, reference compound] | 0.2 µg/mL (≈ 0.267 µM) | 0.2 µg/mL (≈ 0.267 µM) | 0.2 µg/mL (≈ 0.267 µM) | 50 µg/mL (≈ 66.8 µM) | 0.1 µg/mL (≈ 0.134 µM) | > 100 µg/mL | – | – | –
CC[C@H]1OC(=O)[C@H](C)C(=O)[C@H](C)[C@@H](O[C@@H]2O[C@H](C)C[C@H](N(C)C)[C@H]2O)[C@](C)(OC)C[C@@H](C)C(=O)[C@H](C)[C@H]2N(CCN(C)Cc3cccnc3)C(=O)O[C@]12C [Example 2, 11-[2-[N-methyl-N-(3-pyridylmethyl)amino]ethyl]amino-3,11-dideoxy-3-oxo-5-O-desosaminyl-6-O-methylerythronolide A 11,12-cyclic carbamate] | 0.1 µg/mL (≈ 0.131 µM) | 0.05 µg/mL (≈ 0.0657 µM) | 0.1 µg/mL (≈ 0.131 µM) | 0.39 µg/mL (≈ 0.513 µM) | 0.05 µg/mL (≈ 0.0657 µM) | 50 µg/mL (≈ 65.7 µM) | strong antibacterial activity | strong antibacterial activity | strong antibacterial activity
